Experimental data from patent US6417167B1, “Lyophilized compositions containing shingoglycolipid and process for preparing them” (Kirin Beer Kabushiki Kaisha, priority 1997, dated 2002).

Experiment: Addition effects of sodium deoxycholate and histidine in the absence of a sugar
Format: physicochemical
Settings: lyophilized, Polysorbate 20 0.5%, no sugar, 1%, 50° C.
Method: Addition effects of sodium deoxycholate and histidine in the absence of a sugar as the excipient was examined.
First, Polysorbate 20 was dissolved in distilled water in a concentration of 0.5%, and histidine or sodium deoxycholate in a concentration of 1.0%. Next, 20 mg of the active component (KRN7000) was weighed and stirred in 100 ml of the solvents in a heated bath to 80° C. for 20 minutes in order to form a solution. After cooling with running water, the mixture was filtered through a 0.22 μm filter, and transparent colorless glass vials having a volume of 5 ml were charged with a 1 ml portion of each of a variety of solutions thus obtained and subjected to lyophilization. Lyophilization was carried out under the condition of preliminary freezing at −40° C. for 2 hours and drying at −20° C. for 24 hours, 10° C. for 12 hours, and finally at 25° C. for 5 hours to give the lyophilized product. The degree of vacuum was set at 0.1 Torr or less during drying step.
After the lyophilization step, the lyophilized composition thus obtained was stored at 50° C. After storage for 3 days or 2 weeks, the lyophilized composition was reconstituted in 1 ml of distilled water for injection, left standing for 30 minutes, and solubility was judged when the foams generated on reconstitution disappeared. […]

CCCCCCCCCCCCCCCCCCCCCCCCCC(=O)N[C@@H](CO[C@H]1O[C@H](CO)[C@H](O)[C@H](O)[C@H]1O)[C@H](O)[C@H](O)CCCCCCCCCCCCCC [KRN7000, (2S,3S,4R)-1-(α-D-galactopyranosyloxy)-2-hexacosanoylamino-3,4-octadecanediol]
Re-solubility after storage (by naked eye) (Histidine, 2 weeks): + (not dissolved (or deposited)) | Re-solubility after storage (by naked eye) (Sodium deoxycholate, 3 days): + (not dissolved (or deposited))
